In article PMC8286840, “Identifying SARS-CoV-2 antiviral compounds by screening for small molecule inhibitors of Nsp3 papain-like protease” (Biochemical Journal, 2021):
Counter-ions that a name gives are not always drawn. Like-named read-outs stand apart in the source and are kept apart here.

Experiments:
[1] = molecular target: T1, SARS-CoV-2 PLpro (nsp3 1564–1878) (Severe acute respiratory syndrome coronavirus 2, UniProt P0DTD1); experiment: biochemical; parameters: FRET-quenched peptide (Pro3) cleavage by PLpro, 10 min pre-incubation, slope over 20 min, normalised to no-compound control; settings: low concentration screen, read-out: % of control remaining
[2] = molecular target: T1, SARS-CoV-2 PLpro (nsp3 1564–1878); experiment: biochemical; parameters: FRET-quenched peptide (Pro3) cleavage by PLpro, 10 min pre-incubation, slope over 20 min, normalised to no-compound control; settings: high concentration screen, read-out: % of control remaining
Method: The plates were organized with columns 3–22 containing the compounds; the remaining columns were used for reaction controls including substrate only and substrate with enzyme but no compound (Figure 3Aii). The PLpro enzyme was pre-incubated with the compounds for 10 min, and then the reaction was initiated by the addition of substrate. […] We incubated the inhibitors with PLpro before the enzymatic reaction so that the slow-binding inhibitors will not be missed out [21]. […] Fluorescence was read on a Spark multimode microplate reader (Tecan) with an excitation wavelength at 330 nm and emission wavelength at 420 nm. […] An amount of 5 µl of the enzyme was pre-incubated with compounds for 10 min before the addition of 15 µl substrate. Fluorescence was monitored at 2 min for 20 min with 3 min intervals giving a total of seven readings.

## CCCC/C=C\CCCCCCCCC(=O)O [10(Z)-Pentadecenoic acid]
[1]; Well no.=4542
  remaining activity at 1.25 µM: 89.2%
[2]; Well no.=4542
  remaining activity at 3.75 µM: 97.8%

## CCN(CC)CCCCNc1ncc2cc(-c3c(Cl)cccc3Cl)c(NC(=O)NC(C)(C)C)nc2n1 [PD-161570]
[1]; Well no.=5413
  remaining activity at 1.25 µM: 99.1%
[2]; Well no.=5413
  remaining activity at 3.75 µM: 97.7%

## O=C(N[C@@H]1CC[C@@H](c2cccc(F)c2F)CN(CC(F)(F)F)C1=O)N1CCC(n2c(=O)[nH]c3ncccc32)CC1 [MK-0974]
[1]; Well no.=7709
  remaining activity at 1.25 µM: 102%
[2]; Well no.=7709
  remaining activity at 3.75 µM: 108%

## COc1ccc2cc3[n+](cc2c1OC)CCc1cc2c(cc1-3)OCO2
[1]; Well no.=3515
  remaining activity at 1.25 µM: 93.4%
[2]; Well no.=3515
  remaining activity at 3.75 µM: 92.9%

## CCCCC/C=C\C\C=C/C=C/C=C/[C@@H](O)[C@@H](O)CCCC(=O)O [5(S),6(R)-DIHETE]
[1]; Well no.=4373
  remaining activity at 1.25 µM: 106%
[2]; Well no.=4373
  remaining activity at 3.75 µM: 103%

## O=[N+]([O-])c1ncc[nH]1 [Azomycin]
[1]; Well no.=3571
  remaining activity at 1.25 µM: 109%
[2]; Well no.=3571
  remaining activity at 3.75 µM: 103%

## C[C@@H]1C(=O)O[C@H]2[C@H](O)[C@@]34[C@H]5C[C@@H](C(C)(C)C)[C@]36[C@@H](OC(=O)[C@@H]6O)O[C@@]4(C(=O)O5)[C@@]12O [Ginkgolide B]
[1]; Well no.=3321
  remaining activity at 1.25 µM: 97.9%
[1]; Well no.=6484
  remaining activity at 1.25 µM: 95.6%
[2]; Well no.=3321
  remaining activity at 3.75 µM: 101%
[2]; Well no.=6484
  remaining activity at 3.75 µM: 92.7%

## C[C@@H]1CCCN1CCc1cc2cc(-c3ccc(C#N)cc3)ccc2o1 [ABT-239]
[1]; Well no.=8049
  remaining activity at 1.25 µM: 103%
[2]; Well no.=8049
  remaining activity at 3.75 µM: 101%

## O=C(/C=C/c1cccc(S(=O)(=O)Nc2ccccc2)c1)NO [Belinostat (PXD101)]
[1]; Well no.=5009
  remaining activity at 1.25 µM: 98.9%
[2]; Well no.=5009
  remaining activity at 3.75 µM: 91.9%

## Cn1c(=O)cc(N2CCC[C@@H](N)C2)n(Cc2ccccc2C#N)c1=O [Alogliptin (SYR-322)]
[1]; Well no.=5179
  remaining activity at 1.25 µM: 104%
[2]; Well no.=5179
  remaining activity at 3.75 µM: 97.5%

## CN1CCC(c2c[nH]c3ccc(O)cc23)CC1 [BRL 54443 maleate]
[1]; Well no.=231
  remaining activity at 1.25 µM: 101%
[2]; Well no.=231
  remaining activity at 3.75 µM: 101%

## c1ccc2c(c1)OCC(C1=NCCN1)O2 (centres unmarked) [Idazoxan hydrochloride]
[1]; Well no.=821
  remaining activity at 1.25 µM: 105%
[2]; Well no.=821
  remaining activity at 3.75 µM: 102%

## CC#C[C@@H](CC(=O)O)c1ccc(OCc2cccc(-c3ccc(C(F)(F)F)cc3)c2)cc1 [AMG 837 (calcium hydrate)]
[1]; Well no.=6944
  remaining activity at 1.25 µM: 98.4%
[2]; Well no.=6944
  remaining activity at 3.75 µM: 95.6%

## COC(=O)c1cnn(-c2ccc(F)cc2F)c1/C=N/NC(=S)NC(C)(C)C [ML194]
[1]; Well no.=5766
  remaining activity at 1.25 µM: 99.4%
[2]; Well no.=5766
  remaining activity at 3.75 µM: 95.8%

## CCCCCN(CCCOC)C(=O)C(CCC(=O)O)NC(=O)c1ccc(Cl)c(Cl)c1 (centres unmarked) [Loxiglumide]
[1]; Well no.=8483
  remaining activity at 1.25 µM: 94.1%
[2]; Well no.=8483
  remaining activity at 3.75 µM: 95%

## CSC[C@H]1O[C@@H](n2cnc3c(N)ncnc32)[C@H](O)[C@@H]1O [5'-Methylthioadenosine]
[1]; Well no.=6295
  remaining activity at 1.25 µM: 102%
[1]; Well no.=7812
  remaining activity at 1.25 µM: 105%
[2]; Well no.=6295
  remaining activity at 3.75 µM: 103%
[2]; Well no.=7812
  remaining activity at 3.75 µM: 106%

## Cc1ccc(OC[C@H](O)[C@@H](C)NC(C)C)c2c1CCC2 [ICI 118,551 hydrochloride]
[1]; Well no.=1113
  remaining activity at 1.25 µM: 100%
[2]; Well no.=1113
  remaining activity at 3.75 µM: 102%

## O=C(O)COc1ccccc1C(Nc1ccccn1)c1cc(Cl)c2cccnc2c1O (centres unmarked) [Mcl1-IN-1]
[1]; Well no.=6880
  remaining activity at 1.25 µM: 99.8%
[2]; Well no.=6880
  remaining activity at 3.75 µM: 96.8%

## CCCN(CCC)C1CCc2cccc(O)c2C1 (racemic)
[1]; Well no.=470
  remaining activity at 1.25 µM: 99.9%
[2]; Well no.=470
  remaining activity at 3.75 µM: 98.3%

## CCCCC[C@H](O)/C=C/[C@H]1OC(O)C[C@H](O)[C@@H]1C/C=C\CCCC(=O)O (some centres unmarked) [Thromboxane B2]
[1]; Well no.=4286
  remaining activity at 1.25 µM: 99.3%
[2]; Well no.=4286
  remaining activity at 3.75 µM: 98.5%

## CC(=O)N[C@@H]1[C@@H](O)[C@H](O)[C@@H](CO)O[C@@H]1O [N-Acetyl-D-glucosamine]
[1]; Well no.=6881
  remaining activity at 1.25 µM: 100%
[2]; Well no.=6881
  remaining activity at 3.75 µM: 95%

## O=C(O)C(Cl)Cl [Sodium dichloroacetate (DCA)]
[1]; Well no.=8490
  remaining activity at 1.25 µM: 96.6%
[2]; Well no.=8490
  remaining activity at 3.75 µM: 96.1%

## CC1(C)CCC(NC(=O)[C@@H](N)CCC(=O)O)CC1 [CR 2249]
[1]; Well no.=901
  remaining activity at 1.25 µM: 108%
[2]; Well no.=901
  remaining activity at 3.75 µM: 105%

## CNC(=O)c1cnn(-c2nc(N)c3ncn([C@@H]4O[C@H](CO)[C@@H](O)[C@H]4O)c3n2)c1 [Regadenoson]
[1]; Well no.=6557
  remaining activity at 1.25 µM: 106%
[1]; Well no.=8367
  remaining activity at 1.25 µM: 96.6%
[2]; Well no.=6557
  remaining activity at 3.75 µM: 103%
[2]; Well no.=8367
  remaining activity at 3.75 µM: 95.1%

## O=C(O)c1ccccc1C(=O)Nc1ccc(-c2ccccc2)cc1 [Kartogenin]
[1]; Well no.=5620
  remaining activity at 1.25 µM: 91.3%
[2]; Well no.=5620
  remaining activity at 3.75 µM: 96.3%

## O=C1CCCN1CC#CCN1CCCC1 [Oxotremorine]
[1]; Well no.=1673
  remaining activity at 1.25 µM: 104%
[2]; Well no.=1673
  remaining activity at 3.75 µM: 102%

## COc1nccc(-c2c(-c3ccc(F)cc3)ncn2[C@H]2CC[C@H](O)CC2)n1 [SB 239063 - trans-4-[4-(4-Fluorophenyl)-5-(2-methoxy-4-pyrimidinyl)-1H-imidazol-1-yl]cyclohexanol]
[1]; Well no.=2478
  remaining activity at 1.25 µM: 98.8%
[2]; Well no.=2478
  remaining activity at 3.75 µM: 98.4%

## O[C@H](CNC[C@@H](O)[C@H]1CCc2cc(F)ccc2O1)[C@@H]1CCc2cc(F)ccc2O1 [Nebivolol (hydrochloride)]
[1]; Well no.=8139
  remaining activity at 1.25 µM: 105%
[2]; Well no.=8139
  remaining activity at 3.75 µM: 102%

## CC(C)NP(=O)(NC(C)C)OP(=O)(NC(C)C)NC(C)C [Tetraisopropyl pyrophosphoramide]
[1]; Well no.=1473
  remaining activity at 1.25 µM: 103%
[2]; Well no.=1473
  remaining activity at 3.75 µM: 100%

## O=C(COc1cccc2c(=O)[nH]ccc12)c1ccccc1 [UPF 1069]
[1]; Well no.=4828
  remaining activity at 1.25 µM: 94.8%
[2]; Well no.=4828
  remaining activity at 3.75 µM: 96.4%

## CO[C@H]1C[C@H](O[C@H]2[C@H](C)[C@@H](O[C@@H]3O[C@H](C)C[C@H](N(C)C)[C@H]3OC(C)=O)[C@@H](C)C[C@@]3(CO3)C(=O)[C@H](C)[C@@H](OC(C)=O)[C@@H](C)[C@@H](C)OC(=O)[C@@H]2C)O[C@@H](C)[C@@H]1OC(C)=O [Troleandomycin]
[1]; Well no.=1570
  remaining activity at 1.25 µM: 96.7%
[1]; Well no.=3188
  remaining activity at 1.25 µM: 106%
[2]; Well no.=1570
  remaining activity at 3.75 µM: 99.5%
[2]; Well no.=3188
  remaining activity at 3.75 µM: 103%

## NC(=O)c1ccc[n+]([C@@H]2O[C@H](COP(=O)([O-])O)[C@@H](O)[C@H]2O)c1 [_-Nicotinamide mononucleotide]
[1]; Well no.=7735
  remaining activity at 1.25 µM: 102%
[2]; Well no.=7735
  remaining activity at 3.75 µM: 105%

## O=Cc1ccc(O)cc1 [p-Hydroxybenzaldehyde]
[1]; Well no.=6531
  remaining activity at 1.25 µM: 103%
[2]; Well no.=6531
  remaining activity at 3.75 µM: 103%
